We go through 31 compounds from US20250282754A1, “BICYCLIC COMPOUNDS AND THEIR USE AS PEST CONTROL AGENTS” (Pl Industries Ltd., priority 2022, published 2025).

Some results are limits rather than exact numbers.

Holding throughout (type): in vivo
In test [1] the test system is Nilaparvata lugens. In words: Nilaparvata lugens seedling dip test (paddy seedlings, third instar nymphs). As to conditions: dead and moribund third instar nymphs 72 h after release, compared to untreated controls, read-out: percent mortality. As to the method: The seedling dip method was used for testing, wherein the required quantity of the compound was weighed and dissolved in a tube containing a solvent solution. The tube was put on a vortex at 2000 rpm for proper mixing and then diluted with a 0.01% Triton-X solution to the desired test concentration. Paddy seedlings were dipped in the compound solution for 10 seconds, shade dried for 20 min and then the seedlings were placed in glass test tubes with the roots kept in water. 15 third instar nymphs of Nilaparvata lugens were released into each test tube and the tubes were kept in a plant growth chamber at a temperature of 25° C. and relative humidity of 75%. Observations on dead, moribund and alive nymphs were recorded 72 h after the release. Percent mortality was calculated by combining dead and moribund nymphs and comparing the result to the one of the untreated controls. The compounds

In test [2] the test system is Bemisia tabaci. In words: Bemisia tabaci leaf dip test (brinjal leaves, whitefly adults). Conditions: foliar, dead and moribund whitefly adults 72 h after release, compared to untreated controls, read-out: percent mortality. The method, boiled down: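 Brinjal leaves were dipped 10 s in compound diluted in 0.01% Triton-X, dried, and placed on agar, then exposed to freshly emerged whitefly adults at 25° C, 70% RH. Dead plus moribund adults were counted at 72 h, and percent mortality was calculated relative to untreated controls.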

The test system of test [3] is Myzus persicae. In words: Myzus persicae leaf dip test (capsicum leaves, third instar nymphs). Conditions: foliar, dead and moribund third instar nymphs 72 h after release, compared to untreated controls, read-out: percent mortality. As to the method:
The leaf dip method was used for testing, wherein the required quantity of the compound was weighed and dissolved in a tube containing a solvent solution. The tube was put on a vortex at 2000 rpm for proper mixing and then diluted with a 0.01% Triton-X solution to the desired test concentration. Capsicum leaves were dipped in the compound solution for 10 seconds, shade dried for 20 min and then placed, with the abaxial side of the leaf up, in single cells of a bio-assay tray containing 4 ml of a solidified 1% agar-agar solution. Known numbers of third instar nymphs of Myzus persicae, collected in petri plates, were released into the cell with the treated leaf and the cell was covered with a perforated lid for better aeration. The trays were kept in a plant growth chamber at a temperature of 25° C. and a relative humidity of 70%. Observations on dead, moribund and alive nymphs were recorded 72 h after the release. Percent mortality was calculated by combining dead and moribund nymphs and comparing the result with the one of the untreated controls. The compounds

By mortality is commonly meant the share of the test organisms that died. `CCOc1nn(-c2ccc3nn(-c4cccnc4)cc3c2)c(=O)n1Cc1ccc(F)cc1` [Compound 337, 5-ethoxy-4-(4-fluorobenzyl)-2-(2-(pyridin-3-yl)-2H-indazol-5-yl)-2,4-dihydro-3H-1,2,4-triazol-3-one]: the mortality at 300 ppm in test [1], in test [2] and in test [3] was no less than 70% throughout.
For the compound `CCS(=O)(=Nc1cnc2nn(-c3cccnc3)cc2c1)C(C)C` (stereo not drawn) [Compound 148], the mortality at 300 ppm in test [1] and in test [3] was no less than 70% in each case.
`CCN=S(=O)(c1ccc2nn(-c3cncc(F)c3)cc2c1)C(C)C` (stereo not drawn) [Compound 397]: the mortality at 300 ppm in test [1], in test [2] and in test [3] was no less than 70% in each case.
Turning to `COc1nn(-c2ccc3nn(-c4cccnc4)cc3c2)c(=O)n1Cc1ccc(Cl)cc1` [Compound 354, 4-(4-chlorobenzyl)-5-methoxy-2-(2-(pyridin-3-yl)-2H-indazol-5-yl)-2,4-dihydro-3H-1,2,4-triazol-3-one], the mortality at 300 ppm in test [1], in test [2] and in test [3] was no less than 70% in each case.
Regarding `O=S(CCC(F)(F)F)(=Nc1ccc2nn(-c3cncnc3)cc2c1)c1ccc(F)cc1` (stereo not drawn) [Compound 64], the mortality at 300 ppm in test [1] and in test [3] was no less than 70% in each case.
As for `CCN=S(=O)(CC)c1ccc2nn(-c3cncnc3)cc2c1` (stereo not drawn) [Compound 457], the mortality at 300 ppm in test [1], in test [2] and in test [3] was no less than 70% throughout.
For `CCS(=O)(=Nc1ccc2nn(-c3cccnc3)cc2n1)C(C)C` (stereo not drawn) [Compound 240], the mortality at 300 ppm in test [1], in test [2] and in test [3] was no less than 70% in each case.
On to `CCN=S(=O)(CC)c1ccc2nn(-c3cncc(F)c3)cc2c1` (stereo not drawn) [Compound 461], for which the mortality at 300 ppm in test [1], in test [2] and in test [3] was no less than 70% throughout.
On to `N=S(=O)(CC1CC1)c1ccc2nn(-c3cccnc3)cc2c1` (stereo not drawn) [Compound 386, (cyclopropylmethyl)(imino)(2-(pyridin-3-yl)-2H-indazol-5-yl)-λ^6-sulfanone], for which the mortality at 300 ppm in test [1], in test [2] and in test [3] was no less than 70% each time.
As for `CCN=S(=O)(c1ccc2nn(-c3cncnc3)cc2c1)C(C)C` (stereo not drawn) [Compound 419], the mortality at 300 ppm in test [1], in test [2] and in test [3] was no less than 70% each time.
As for `CS(C)(=O)=Nc1ccc2nn(-c3cccnc3)cc2c1` [Compound 1], the mortality at 300 ppm in test [1], in test [2] and in test [3] was no less than 70% each time.
As for `CC(C)S(=O)(=Nc1ccc2nn(-c3cccnc3)cc2c1)C(C)C` [Compound 28], the mortality at 300 ppm in test [1], in test [2] and in test [3] was no less than 70% each time.
Take `CCS(=O)(CC)=Nc1ccc2nn(-c3cccnc3)cc2c1` [Compound 3]: the mortality at 300 ppm in test [1] and in test [3] was no less than 70% each time.
As to `CC(=O)N=S(=O)(c1ccc2nn(-c3cccnc3)cc2c1)C(C)C` (stereo not drawn) [Compound 389], the mortality at 300 ppm in test [1], in test [2] and in test [3] was no less than 70% throughout.
Regarding `CS(C)(=O)=NC(=O)c1cccc2nn(-c3cccnc3)cc12` [Compound 92, N-(dimethyl(oxo)-λ^6-sulfaneylidene)-2-(pyridin-3-yl)-2H-indazole-4-carboxamide], the mortality at 300 ppm in test [1] and in test [3] was no less than 70% each time.
For the compound `CCS(=O)(=Nc1cccc2nn(-c3cccnc3)cc12)C(C)C` (stereo not drawn) [Compound 71], the mortality at 300 ppm in test [1], in test [2] and in test [3] was no less than 70% each time.
Consider `CCS(=N)(=O)c1ccc2nn(-c3cccnc3)cc2c1` (stereo not drawn) [Compound 387, ethyl(imino)(2-(pyridin-3-yl)-2H-indazol-5-yl)-λ^6-sulfanone], for which the mortality at 300 ppm in test [1], in test [2] and in test [3] was no less than 70% in each case.
`COc1nn(-c2ccc3nn(-c4cncc(F)c4)cc3c2)c(=O)n1C` [Compound 112, 2-(2-(5-fluoropyridin-3-yl)-2H-indazol-5-yl)-5-methoxy-4-methyl-2,4-dihydro-3H-1,2,4-triazol-3-one]: the mortality at 300 ppm in test [1] and in test [3] was no less than 70% in each case.
With `CCN=S(=O)(CC1CC1)c1ccc2nn(-c3cccnc3)cc2c1` (stereo not drawn) [Compound 388], the mortality at 300 ppm in test [1] and in test [3] was no less than 70% each time.
`COCCS(C)(=O)=Nc1ccc2nn(-c3cccnc3)cc2n1` (stereo not drawn) [Compound 236]: the mortality at 300 ppm in test [1], in test [2] and in test [3] was no less than 70% throughout.
`CCS(=O)(=Nc1ccc2nn(-c3cncc(F)c3)cc2c1)C(C)C` (stereo not drawn) [Compound 41]: the mortality at 300 ppm in test [1] and in test [3] was no less than 70% in each case.
Consider `CCS(C)(=O)=Nc1ccc2nn(-c3cccnc3)cc2c1` (stereo not drawn) [Compound 2], for which the mortality at 300 ppm in test [1] and in test [3] was no less than 70% throughout.
In the case of `CCS(=O)(=Nc1ccc2nn(-c3cncnc3)cc2c1)C(C)C` (stereo not drawn) [Compound 32], the mortality at 300 ppm in test [1], in test [2] and in test [3] was no less than 70% in each case.
Consider `CCCS(=O)(CC)=Nc1ccc2nn(-c3cccnc3)cc2c1` (stereo not drawn) [Compound 137], for which the mortality at 300 ppm in test [1] and in test [3] was no less than 70% each time.
On to `CCS(C)(=O)=Nc1cnc2nn(-c3cccnc3)cc2c1` (stereo not drawn) [Compound 147], for which the mortality at 300 ppm in test [1] and in test [3] was no less than 70% each time.
Turning to `CCS(=O)(=Nc1ccc2nn(-c3cccnc3)cc2c1)C(C)C` (stereo not drawn) [Compound 29], the mortality at 300 ppm in test [1], in test [2] and in test [3] was no less than 70% throughout.
As for `CS(C)(=O)=Nc1cnc2nn(-c3cccnc3)cc2c1` [Compound 146], the mortality at 300 ppm in test [1] and in test [3] was no less than 70% throughout.
As to `CC(C)S(C)(=O)=Nc1ccc2nn(-c3cccnc3)cc2n1` (stereo not drawn) [Compound 238], the mortality at 300 ppm in test [1], in test [2] and in test [3] was no less than 70% throughout.
Consider `CCS(=O)(CC)=Nc1cccc2nn(-c3cccnc3)cc12` [Compound 73], for which the mortality at 300 ppm in test [1], in test [2] and in test [3] was no less than 70% in each case.
Regarding `CC(C)S(=O)(=NC1CC1)c1ccc2nn(-c3cccnc3)cc2c1` (stereo not drawn) [Compound 406], the mortality at 300 ppm in test [1], in test [2] and in test [3] was no less than 70% throughout.
For the compound `CS(C)(=O)=Nc1ccc2nn(-c3cncc(F)c3)cc2n1` [Compound 306], the mortality at 300 ppm in test [2] and in test [3] was no less than 70% throughout.
